Data: patent US20240246964A1 (Arbutus Biopharma Corporation, priority 2021, published 2024)

Molecular target: human PD-L1 (Homo sapiens (Human), UniProt Q9NZQ7)
Assay: T cell activation luciferase reporter cell culture system (T Cell Activation Assay)
Format: cell-based
Settings: luciferase reporter assay; PD-L1 aAPC/CHO-K1 cells with PD-1 effector Jurkat T cells

Sequence of human PD-L1 (Q9NZQ7 19-290): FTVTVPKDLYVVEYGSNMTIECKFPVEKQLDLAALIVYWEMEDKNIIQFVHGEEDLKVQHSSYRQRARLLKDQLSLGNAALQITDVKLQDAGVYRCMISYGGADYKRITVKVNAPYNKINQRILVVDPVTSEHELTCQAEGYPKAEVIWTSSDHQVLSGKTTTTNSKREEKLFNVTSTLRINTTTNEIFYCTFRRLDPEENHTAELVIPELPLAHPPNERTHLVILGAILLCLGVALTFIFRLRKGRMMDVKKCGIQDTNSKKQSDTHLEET

SMILES | EC50 [nM]
COc1cc(-c2nccc(-c3cccc(-c4ccc(CNC[C@@H]5CCC(=O)N5)c(OC)n4)c3Cl)c2Cl)cc(F)c1CNC[C@H](C)O [Cmpd 80, (S)-5-((((6-(2-chloro-3-(3-chloro-2-(3-fluoro-4-((((S)-2-hydroxypropyl)amino)methyl)-5-methoxyphenyl)pyridin-4-yl)phenyl)-2-methoxypyridin-3-yl)methyl)amino)methyl)pyrrolidin-2-one] | 46.2
COc1cc(-c2nccc(-c3cccc(-c4ccc(CNC[C@@H]5CCC(=O)N5)c(OC)n4)c3Cl)c2Cl)cc(F)c1CNC[C@@H](C)O [Cmpd 81, (S)-5-((((6-(2-chloro-3-(3-chloro-2-(3-fluoro-4-((((R)-2-hydroxypropyl)amino)methyl)-5-methoxyphenyl)pyridin-4-yl)phenyl)-2-methoxypyridin-3-yl)methyl)amino)methyl)pyrrolidin-2-one] | 31.4
COc1cc(-c2nccc(-c3cccc(-c4ccc(CNC[C@@H]5CCC(=O)N5)c(OC)n4)c3Cl)c2Cl)cc(F)c1CNC(C)C [Cmpd 82, (S)-5-((((6-(2-chloro-3-(3-chloro-2-(3-fluoro-4-((isopropylamino)methyl)-5-methoxyphenyl)pyridin-4-yl)phenyl)-2-methoxypyridin-3-yl)methyl)amino)methyl)pyrrolidin-2-one] | 60.5
COc1cc(-c2nccc(-c3cccc(-c4ccc(CNC[C@@H]5CCC(=O)N5)c(OC)n4)c3Cl)c2Cl)cc(F)c1CNCC(C)C [Cmpd 83, (S)-5-((((6-(2-chloro-3-(3-chloro-2-(3-fluoro-4-((isobutylamino)methyl)-5-methoxyphenyl)pyridin-4-yl)phenyl)-2-methoxypyridin-3-yl)methyl)amino)methyl)pyrrolidin-2-one] | 66.2
COc1cc(-c2nccc(-c3cccc(-c4ccc(CNCCO)c(OC)n4)c3Cl)c2Cl)cc2c1CN(CCCF)CC2 [Cmpd 84, 2-(((6-(2-chloro-3-(3-chloro-2-(2-(3-fluoropropyl)-8-methoxy-1,2,3,4-tetrahydroisoquinolin-6-yl)pyridin-4-yl)phenyl)-2-methoxypyridin-3-yl)methyl)amino)ethan-1-ol] | 71
COc1cc(-c2nccc(-c3cccc(-c4ccc(CNCCO)c(OC)n4)c3Cl)c2Cl)cc2c1CN(CCC1CCNCC1)CC2 [Cmpd 85, 2-(((6-(2-chloro-3-(3-chloro-2-(8-methoxy-2-(2-(piperidin-4-yl)ethyl)-1,2,3,4-tetrahydroisoquinolin-6-yl)pyridin-4-yl)phenyl)-2-methoxypyridin-3-yl)methyl)amino)ethan-1-ol] | 142
COc1cc(-c2nccc(-c3cccc(-c4cc(Cl)c(CNC[C@@H]5CCC(=O)N5)c(OC)n4)c3Cl)c2Cl)cc2c1CN(C[C@H](C)O)CC2 [Cmpd 86, (S)-5-((((4-chloro-6-(2-chloro-3-(3-chloro-2-(2-((S)-2-hydroxypropyl)-8-methoxy-1,2,3,4-tetrahydroisoquinolin-6-yl)pyridin-4-yl)phenyl)-2-methoxypyridin-3-yl)methyl)amino)methyl)pyrrolidin-2-one] | 27.5
COc1cc(-c2nccc(-c3cccc(-c4ccc(CNC[C@@H]5CCC(=O)N5)c(OC)n4)c3Cl)c2Cl)ccc1CN1CC2(CNC(=O)C2)C1 [Cmpd 88, (S)-2-(4-(3-chloro-4-(2-chloro-3-(6-methoxy-5-((((5-oxopyrrolidin-2-yl)methyl)amino)methyl)pyridin-2-yl)phenyl)pyridin-2-yl)-2-methoxybenzyl)-2,6-diazaspiro[3.4]octan-7-one] | 24.9
COc1cc(-c2nccc(-c3cccc(-c4ccc5c(CN(C)C6CCN(C(C)=O)CC6)cn(C)c5n4)c3Cl)c2Cl)ccc1CNC[C@@H]1CCC(=O)N1 [Cmpd 92, (S)-5-(((4-(4-(3-(3-(((1-acetylpiperidin-4-yl)(methyl)amino)methyl)-1-methyl-1H-pyrrolo[2,3-b]pyridin-6-yl)-2-chlorophenyl)-3-chloropyridin-2-yl)-2-methoxybenzyl)amino)methyl)pyrrolidin-2-one] | 10.1
COc1cc(-c2nccc(-c3cccc(-c4ccc5c(CNC[C@@H]6CCCO6)cn(C)c5n4)c3Cl)c2Cl)ccc1CNC[C@@H]1CCC(=O)N1 [Cmpd 93, (S)-5-(((4-(3-chloro-4-(2-chloro-3-(1-methyl-3-(((((S)-tetrahydrofuran-2-yl)methyl)amino)methyl)-1H-pyrrolo[2,3-b]pyridin-6-yl)phenyl)pyridin-2-yl)-2-methoxybenzyl)amino)methyl)pyrrolidin-2-one] | 44.2
COc1nc(-c2cccc(-c3ccnc(-c4cc5c(=O)n(C)c(CNC6CC(C)(O)C6)nn5c4)c3Cl)c2Cl)ccc1CNC[C@@H]1CCC(=O)N1 (stereo partly drawn) [Cmpd 102, (S)-6-(3-chloro-4-(2-chloro-3-(6-methoxy-5-((((5-oxopyrrolidin-2-yl)methyl)amino)methyl)pyridin-2-yl)phenyl)pyridin-2-yl)-2-(((3-hydroxy-3-methylcyclobutyl)amino)methyl)-3-methylpyrrolo[2,1-f][1,2,4]triazin-4(3H)-one] | 342
COc1cc(-c2nccc(-c3cccc(-c4cc(Cl)c(CNC[C@@H]5CCC(=O)N5)c(OC)n4)c3Cl)c2Cl)cc2c1CN(C[C@@H](C)O)CC2 [Cmpd 104, (S)-5-((((4-chloro-6-(2-chloro-3-(3-chloro-2-(2-((R)-2-hydroxypropyl)-8-methoxy-1,2,3,4-tetrahydroisoquinolin-6-yl)pyridin-4-yl)phenyl)-2-methoxypyridin-3-yl)methyl)amino)methyl)pyrrolidin-2-one] | 30.7
COc1cc(-c2nccc(-c3cccc(-c4cc(Cl)c(CNC[C@@H]5CCC(=O)N5)c(OC)n4)c3Cl)c2Cl)ccc1CNCC(=O)O [Cmpd 105, (S)-(4-(3-chloro-4-(2-chloro-3-(4-chloro-6-methoxy-5-((((5-oxopyrrolidin-2-yl)methyl)amino)methyl)pyridin-2-yl)phenyl)pyridin-2-yl)-2-methoxybenzyl)glycine] | 191
COc1cc(-c2nccc(-c3cccc(-c4ccc(CNC[C@@H]5CCC(=O)N5)c(OC)n4)c3Cl)c2Cl)ccc1CNCC(=O)O [Cmpd 107, (S)-(4-(3-chloro-4-(2-chloro-3-(6-methoxy-5-((((5-oxopyrrolidin-2-yl)methyl)amino)methyl)pyridin-2-yl)phenyl)pyridin-2-yl)-2-methoxybenzyl)glycine] | 253
COc1cc(-c2nccc(-c3cccc(-c4ccc(CNC[C@@H]5CCC(=O)N5)c(OC)n4)c3Cl)c2Cl)ccc1CNCC(=O)OC(C)C [Cmpd 108, isopropyl (S)-(4-(3-chloro-4-(2-chloro-3-(6-methoxy-5-((((5-oxopyrrolidin-2-yl)methyl)amino)methyl)pyridin-2-yl)phenyl)pyridin-2-yl)-2-methoxybenzyl)glycinate] | 140
COc1cc(-c2nccc(-c3cccc(-c4ccc(CNC[C@@H]5CCC(=O)N5)c(OC)n4)c3Cl)c2Cl)ccc1CNC1CCN(C(C)=O)CC1 [Cmpd 109, (S)-5-((((6-(3-(2-(4-(((1-acetylpiperidin-4-yl)amino)methyl)-3-methoxyphenyl)-3-chloropyridin-4-yl)-2-chlorophenyl)-2-methoxypyridin-3-yl)methyl)amino)methyl)pyrrolidin-2-one] | 27.9
COc1nc(-c2cccc(-c3ccnc(-c4cnn(C5CNC5)c4)c3Cl)c2Cl)ccc1CNC[C@@H]1CCC(=O)N1 [Cmpd 119, (S)-5-((((6-(3-(2-(1-(azetidin-3-yl)-1H-pyrazol-4-yl)-3-chloropyridin-4-yl)-2-chlorophenyl)-2-methoxypyridin-3-yl)methyl)amino)methyl)pyrrolidin-2-one] | 370
